According to patent US20110251220A1, “Pharmaceutical compositions comprising gamma secretase modulators” (priority 2008, published 2011):

How the values were obtained:
OPM-2 cells = assay: PARP cleavage by Western blotting, OPM-2; assay type: cell-based, human
Protocol: In osteoclast coculture experiments, OPM-2 cells (1×10^6 cells) were added to osteoclasts in 60 mm dishes (4×10^6 cells per dish) in 3 ml MEM medium supplemented with 10% FCS, 100 U/ml penicillin, 100 μg/ml streptomycin. GSI15 (30 μM, 60 μM) or DMSO (equivalent to 60 μM) as solvent control were added to each well (daily treatment). After 48 h, 0.5 ml OPM-2 cell suspension were harvested per well and subjected to AnnexinV-FITC/PI staining. Remaining OPM-2 cells were harvested and lysed for either RNA or protein preparation. The monolayer of osteoclasts was washed twice with ice-cold PBS and then lysed for either RNA or protein preparation directly on the plate.
In osteoblast coculture experiments, OPM-2 cells (7.5×10^5) were added to osteoblasts (2×10^5 cells) in 6-well plates in 2 ml DMEM/HAM's F12 medium supplemented with 10% FCS, 100 U/ml penicillin, 100 μg/ml streptomycin. GSI15 (40 μM, 60 μM, 80 μM) or DMSO (equivalent to 80 μM) as solvent control was added to each well (daily treatment). After 72 h of coculture and GSI15 treatment OPM-2 cells in suspension were aspirated and subjected to protein lysis. The remaining monolayer of osteoblasts was washed twice with ice-cold PBS and lysed directly on the plate with protein lysis buffer.
Whole cell extracts were prepared and quantified as described in Jundt F, Anagnostopoulos I, Forster R, Mathas S, Stein H, Dorken B. Activated Notch1 signaling promotes tumor cell proliferation and survival in Hodgkin and anaplastic large cell lymphoma. Blood. 2002; 99:3398-3403. Proteins (30 μg) were resolved by sodium dodecyl sulfate-polyacrylamide gel electrophoresis (SDS-PAGE) and transferred to nitrocellulose membranes. Protein loading was normalized by Ponceau red staining. […]
Secondary antibodies were goat anti-mouse (Promega, Mannheim, Germany), goat anti-rat (Dianova, Hamburg, Germany), and goat anti-rabbit (Santa Cruz Biotechnology) horseradish peroxidase (HRP)-conjugated antibodies. Detection was done using Pico chemi-luminescence reagent (Perbio Science, Bonn, Germany).

OCL = assay: PARP cleavage in osteoclasts (OCL), mono- and coculture; assay type: cell-based, human
Protocol: Human MM cell lines used were as follows: NCI-H929, OPM-2, LP-1, RPMI-8226, U266 (DSMZ, Braunschweig, Germany). Cell lines were cultured in RPMI 1640 medium (Biochrom, Berlin, Germany) supplemented with 10% heat-inactivated fetal calf serum (FCS, Gibco, Karlsruhe, Germany), 1 mM sodium pyruvate and 100 units/ml penicillin and 100 μg/ml streptomycin (Gibco). Human osteoclasts were obtained as described in the reference of Zavrski I, Krebbel H, Wildemann B, et al. Proteasome inhibitors abrogate osteoclast differentiation and osteoclast function. Biochem Biophys Res Commun. 2005; 333:200-205. Briefly, peripheral blood mononuclear cells (PBMC) were isolated from whole blood of healthy volunteers, using a Ficoll-Hypaque density gradient. The adherent fraction of the isolated mononuclear cells was cultured for 21 days in MEM medium (Sigma-Aldrich Chemie, Taufkirchen, Germany) supplemented with 10% FCS, 100 U/ml penicillin, 100 μg/ml streptomycin, 50 ng/ml M-CSF, and 25 ng/ml RANKL (osteoclastogenic medium), before coculture experiments and treatment with the inventive compounds started. […]
Whole cell extracts were prepared and quantified as described in Jundt F, Anagnostopoulos I, Forster R, Mathas S, Stein H, Dorken B. Activated Notch1 signaling promotes tumor cell proliferation and survival in Hodgkin and anaplastic large cell lymphoma. […]

**Q.** For `CC(C)c1ccc(S(=O)(=O)Nc2cccnc2Oc2ccc(Cl)cc2)cc1` [Example 1, N-(2-(4-chlorophenoxy)pyridin-3-yl)-4-isopropylbenzenesulfonamide], which PARP cleavage (OPM-2 cells; MM cells in coculture with OBL or MSC) is on record?
**A.** apoptosis induction

**Q.** What about the “PARP cleavage product (apoptosis marker)” value (OPM-2 cells; OPM-2, 30 μM GSI15) of the same molecule?
**A.** Apoptosis induction could be shown

**Q.** What about the PARP cleavage (OPM-2 cells; OPM-2 in mono- and coculture with OCL) of the same molecule?
**A.** Strong induction of PARP cleavage

**Q.** What about the PARP cleavage (OCL; OCL alone) of the same molecule?
**A.** did not induce PARP cleavage

**Q.** What about the PARP cleavage (OCL; OCL cocultured with OPM-2 cells, high doses of GSI15) of the same molecule?
**A.** it was induced
